How the values were obtained:
[1] = test system: Human platelet aggregation caused by ADP; experiment: Inhibition of ADP-induced platelet aggregation (Mimic-human PRP); assay type: cell-based; conditions: 20 μM ADP, human platelet concentrate diluted with PPP, absorption at 595 nm
Summary of the method: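 Human PRP diluted with PPP to 3–4×10^8 platelets/mL was preincubated 20 min at room temperature with compound (0.01–30 μM, DMSO), then stimulated with 20 μM ADP. Aggregation read as A595 increase at 3 min versus 0 and 20 μM ADP controls; Ki from sigmoidal non-linear regression.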

Human P2Y12 receptor = molecular target: T1, Human P2Y12 receptor (Homo sapiens, UniProt Q9H244); experiment: Human P2Y12 receptor cell membrane binding assay with [3H] 2-Mes-ADP; conditions: 1 nM [3H] 2-Mes-ADP, membranes of HEK cells expressing P2Y12 receptor; read-out: Binding activity (IC50)
T1 construct: expressed in transfected cells; host or cells: HEK cells
T1 sequence (Q9H244 whole entry): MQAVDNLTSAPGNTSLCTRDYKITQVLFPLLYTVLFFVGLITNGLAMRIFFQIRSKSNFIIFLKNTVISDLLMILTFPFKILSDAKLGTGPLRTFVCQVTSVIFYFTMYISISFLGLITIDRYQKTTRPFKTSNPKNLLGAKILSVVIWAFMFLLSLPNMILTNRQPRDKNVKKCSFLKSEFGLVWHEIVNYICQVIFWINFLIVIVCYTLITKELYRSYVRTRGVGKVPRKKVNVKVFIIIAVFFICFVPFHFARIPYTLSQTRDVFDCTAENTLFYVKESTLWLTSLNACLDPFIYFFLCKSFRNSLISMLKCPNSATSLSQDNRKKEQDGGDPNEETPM
Summary of the method: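 Membranes from HEK cells expressing human P2Y12 were incubated with compound and 1 nM [3H]2-MeS-ADP for 1 h at room temperature. Bound radioactivity was collected by GF/B filtration.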

SMILES	Ki [1] [nM]	IC50 (Human P2Y12 receptor) [nM]
CCCc1cc2c(N3CCn4c(nnc4C(F)(F)F)C3)nc(N3CCc4sccc4C3)nc2s1 [Example 1-79, 7-[2-(6,7-Dihydro-4H-thieno[3,2-c]pyridin-5-yl)-6-propyl-thieno[2,3-d]pyrimidin-4-yl]-3-trifluoromethyl-5,6,7,8-tetrahydro-[1,2,4]triazolo[4,3-a]pyrazine]	1250	370
CCCc1cc2c(N3CCn4c(nnc4C(F)(F)F)C3)nc(N3CCN(C(=O)CO)CC3)nc2s1 [Example 1-9, 2-Hydroxy-1-{4-[6-propyl-4-(3-trifluoromethyl-5,6-dihydro-8H-[1,2,4]triazolo[4,3-a]pyrazin-7-yl)-thieno[2,3-d]pyrimidin-2-yl]-piperazin-1-yl}-ethanone]	500	70
CCCc1cc2c(N3CCn4c(nnc4C(F)(F)F)C3)nc(N3CCN(CC4CCCC4)CC3)nc2s1 [Example 1-41, 7-[2-(4-Cyclopentylmethyl-piperazin-1-yl)-6-propyl-thieno[2,3-d]pyrimidin-4-yl]-3-trifluoromethyl-5,6,7,8-tetrahydro-[1,2,4]triazolo[4,3-a]pyrazine]	1600	536
CCCc1cc2c(N3CCn4c(nnc4C(F)(F)F)C3)nc(N3CC[C@H](C(=O)NCCO)C3)nc2s1 [Example 1-90, (S)-1-[6-Propyl-4-(3-trifluoromethyl-5,6-dihydro-8H-[1,2,4]triazolo[4,3-a]pyrazin-7-yl)-thieno[2,3-d]pyrimidin-2-yl]-pyrrolidine-3-carboxylic acid (2-hydroxy-ethyl)-amide]	50	110
CCCc1cc2c(N3CCn4c(nnc4C(F)(F)F)C3)nc(N3CCn4c(nnc4C(F)(F)F)C3)nc2s1 [Example 1-74, 7,7′-(6-propylthieno[2,3-d]pyrimidine-2,4-diyl)bis[3-(trifluoromethyl)-5,6,7,8-tetrahydro[1,2,4]triazolo[4,3-a]pyrazine]]	40	33
CCCc1cc2c(N3CCn4c(nnc4C(F)(F)F)C3)nc(-c3nnc(CC(=O)O)o3)nc2s1 [Example 4-41, {5-[6-Propyl-4-(3-trifluoromethyl-5,6-dihydro-8H-[1,2,4]triazolo[4,3-a]pyrazin-7-yl)thieno[2,3-d]pyrimidin-2-yl]-[1,3,4]oxadiazol-2-yl}acetic acid]	700	410
CCCc1cc2c(N3CCn4c(nnc4C(F)(F)F)C3)nc(C3=N[C@H](CC(=O)OC(C)C)CS3)nc2s1 [Example 4-48, {(R)-2-[6-Propyl-4-(3-trifluoromethyl-5,6-dihydro-8H-[1,2,4]triazolo[4,3-a]pyrazin-7-yl)thieno[2,3-d]pyrimidin-2-yl]-4,5-dihydro-thiazol-4-yl}acetic acid isopropyl ester]	510	210
CCCc1cc2c(N3CCn4c(nnc4C(F)(F)F)C3)nc(N3CCC(OC)C3)nc2s1 (centres unmarked) [Example 1-24, 7-[2-(3-Methoxy-pyrrolidin-1-yl)-6-propyl-thieno[2,3-d]pyrimidin-4-yl]-3-trifluoromethyl-5,6,7,8-tetrahydro-[1,2,4]triazolo[4,3-a]pyrazine]	88	54
CCc1cc2c(N3CCn4c(nnc4C(F)(F)F)C3)nc(N3CCNCC3)nc2s1 [Example 2-7, 7-(6-Ethyl-2-piperazin-1-yl-thieno[2,3-d]pyrimidin-4-yl)-3-trifluoromethyl-5,6,7,8-tetrahydro-[1,2,4]triazolo[4,3-a]pyrazine]	669	210
CCCc1cc2c(N3CCn4c(nnc4C(F)(F)F)C3)nc(N3CC[C@H](N)C3)nc2s1 [Example 1-14, (S)-1-[6-Propyl-4-(3-trifluoromethyl-5,6-dihydro-8H-[1,2,4]triazolo[4,3-a]pyrazin-7-yl)-thieno[2,3-d]pyrimidin-2-yl]-pyrrolidin-3-ylamine]	34	60
CCCc1cc2c(N3CCn4c(nnc4C(F)(F)F)C3)nc(N3CCC(=NOC)C3)nc2s1 [Example 1-20, 1-[6-Propyl-4-(3-trifluoromethyl-5,6-dihydro-8H-[1,2,4]triazolo[4,3-a]pyrazin-7-yl)-thieno[2,3-d]pyrimidin-2-yl]-pyrrolidin-3-one O-methyloxime]	190	163
CCCc1cc2c(N3CCn4c(nnc4C(F)(F)F)C3)nc(OCCC(=O)O)nc2s1 [Example 3-11, 3-[6-Propyl-4-(3-trifluoromethyl-5,6-dihydro-8H-[1,2,4]triazolo[4,3-a]pyrazin-7-yl)-thieno[2,3-d]pyrimidin-2-yloxy]-propionic acid]	70	72
CCCc1cc2c(N3CCn4c(nnc4C(F)(F)F)C3)nc(Oc3ccc(C(=O)O)cc3)nc2s1 [Example 3-35, 4-[6-Propyl-4-(3-trifluoromethyl-5,6-dihydro-8H-[1,2,4]triazolo[4,3-a]pyrazin-7-yl)-thieno[2,3-d]pyrimidin-2-yloxy]-benzoic acid]	1400	99
CCCc1cc2c(N3CCn4c(nnc4C(F)(F)F)C3)nc(N[C@@H]3C[C@H](OCCO)[C@@H](O)[C@H]3O)nc2s1 [Example 1-33, (1S,2S,3S,5R)-3-(2-Hydroxy-ethoxy)-5-[6-propyl-4-(3-trifluoromethyl-5,6-dihydro-8H-[1,2,4]triazolo[4,3-a]pyrazin-7-yl)-thieno[2,3-d]pyrimidin-2-ylamino]-cyclopentane-1,2-diol]	250	780
CCCc1cc2c(N3CCn4c(nnc4C(F)(F)F)C3)nc(N3CC[C@@H](C(=O)OCOC(=O)C(C)(C)C)C3)nc2s1 [Example 1-63, (R)-1-[6-Propyl-4-(3-trifluoromethyl-5,6-dihydro-8H-[1,2,4]triazolo[4,3-a]pyrazin-7-yl)-thieno[2,3-d]pyrimidin-2-yl]-pyrrolidine-3-carboxylic acid 2,2-dimethyl-propionyloxymethyl ester]	1000	520
CCc1cc2c(N3CCn4c(nnc4C(F)(F)F)C3)nc(N3CCN(C)CC3)nc2s1 [Example 2-10, 7-[6-Ethyl-2-(4-methyl-piperazin-1-yl)-thieno[2,3-d]pyrimidin-4-yl]-3-trifluoromethyl-5,6,7,8-tetrahydro-[1,2,4]triazolo[4,3-a]pyrazine]	773	220
CCCc1cc2c(N3CCn4c(nnc4C(F)(F)F)C3)nc(N3CCC[C@H]3C(=O)OCOC(=O)C(C)(C)C)nc2s1 [Example 1-52, (S)-1-[6-Propyl-4-(3-trifluoromethyl-5,6-dihydro-8H-[1,2,4]triazolo[4,3-a]pyrazin-7-yl)-thieno[2,3-d]pyrimidin-2-yl]-pyrrolidine-2-carboxylic acid 2,2-dimethyl-propionyloxymethyl ester]	> 4000	1030
CCCc1cc2c(N3CCn4c(nnc4C(F)(F)F)C3)nc(N3CCC(CN)C3)nc2s1 (centres unmarked) [Example 1-12, C-{1-[6-Propyl-4-(3-trifluoromethyl-5,6-dihydro-8H-[1,2,4]triazolo[4,3-a]pyrazin-7-yl)-thieno[2,3-d]pyrimidin-2-yl]-pyrrolidin-3-yl}-methylamine]	226	84
CCCc1cc2c(N3CCn4c(nnc4C(F)(F)F)C3)nc(OCCNS(=O)(=O)C(F)(F)F)nc2s1 [Example 3-69, C,C,C-Trifluoro-N-{2-[6-propyl-4-(3-trifluoromethyl-5,6-dihydro-8H-[1,2,4]triazolo[4,3-a]pyrazin-7-yl)-thieno[2,3-d]pyrimidin-2-yloxy]-ethyl}-methanesulfonamide]	4100	180
CCCc1cc2c(N3CCn4c(nnc4C(F)(F)F)C3)nc(NCC3CCN(Cc4ccccc4)C3)nc2s1 (centres unmarked) [Example 1-11, (1-Benzyl-pyrrolidin-3-ylmethyl)-[6-propyl-4-(3-trifluoromethyl-5,6-dihydro-8H-[1,2,4]triazolo[4,3-a]pyrazin-7-yl)-thieno[2,3-d]pyrimidin-2-yl]-amine]	1380	260
CCCc1cc2c(N3CCn4c(nnc4C(F)(F)F)C3)nc(N3CC[C@H](O)C3)nc2s1 [Example 1-16, (S)-1-[6-Propyl-4-(3-trifluoromethyl-5,6-dihydro-8H-[1,2,4]triazolo[4,3-a]pyrazin-7-yl)-thieno[2,3-d]pyrimidin-2-yl]-pyrrolidin-3-ol]	45	36
CCCc1cc2c(N3CCn4c(nnc4C(F)(F)F)C3)nc(OCc3ccncc3)nc2s1 [Example 3-25, 7-[6-Propyl-2-(pyridin-4-ylmethoxy)-thieno[2,3-d]pyrimidin-4-yl]-3-trifluoromethyl-5,6,7,8-tetrahydro-[1,2,4]triazolo[4,3-a]pyrazine]	930	170
CCCc1cc2c(N3CCn4c(nnc4C(F)(F)F)C3)nc(N3CCN(c4cccc(O)c4)CC3)nc2s1 [Example 1-39, 3-{4-[6-Propyl-4-(3-trifluoromethyl-5,6-dihydro-8H-[1,2,4]triazolo[4,3-a]pyrazin-7-yl)-thieno[2,3-d]pyrimidin-2-yl]-piperazin-1-yl}-phenol]	550	140
CCCc1cc2c(N3CCn4c(nnc4C(F)(F)F)C3)nc(Oc3cccc(C(=O)OC)c3)nc2s1 [Example 3-30, 3-[6-Propyl-4-(3-trifluoromethyl-5,6-dihydro-8H-[1,2,4]triazolo[4,3-a]pyrazin-7-yl)-thieno[2,3-d]pyrimidin-2-yloxy]-benzoic acid methyl ester]	> 4000	280
CCCc1cc2c(N3CCn4c(nnc4C(F)(F)F)C3)nc(OCCN)nc2s1 [Example 3-58, 2-[6-Propyl-4-(3-trifluoromethyl-5,6-dihydro-8H-[1,2,4]triazolo[4,3-a]pyrazin-7-yl)-thieno[2,3-d]pyrimidin-2-yloxy]-ethylamine]	21	400
